In ChEMBL document CHEMBL1133150, “N-formyl hydroxylamine containing dipeptides: generation of a new class of vasopeptidase inhibitors” (Bioorg Med Chem Lett, 2000):

Experiments:
[1] = molecular target: T1, Angiotensin-converting enzyme (Oryctolagus cuniculus, UniProt P12822); assay: Inhibition of Angiotensin I converting enzyme
T1 sequence (P12822 whole entry): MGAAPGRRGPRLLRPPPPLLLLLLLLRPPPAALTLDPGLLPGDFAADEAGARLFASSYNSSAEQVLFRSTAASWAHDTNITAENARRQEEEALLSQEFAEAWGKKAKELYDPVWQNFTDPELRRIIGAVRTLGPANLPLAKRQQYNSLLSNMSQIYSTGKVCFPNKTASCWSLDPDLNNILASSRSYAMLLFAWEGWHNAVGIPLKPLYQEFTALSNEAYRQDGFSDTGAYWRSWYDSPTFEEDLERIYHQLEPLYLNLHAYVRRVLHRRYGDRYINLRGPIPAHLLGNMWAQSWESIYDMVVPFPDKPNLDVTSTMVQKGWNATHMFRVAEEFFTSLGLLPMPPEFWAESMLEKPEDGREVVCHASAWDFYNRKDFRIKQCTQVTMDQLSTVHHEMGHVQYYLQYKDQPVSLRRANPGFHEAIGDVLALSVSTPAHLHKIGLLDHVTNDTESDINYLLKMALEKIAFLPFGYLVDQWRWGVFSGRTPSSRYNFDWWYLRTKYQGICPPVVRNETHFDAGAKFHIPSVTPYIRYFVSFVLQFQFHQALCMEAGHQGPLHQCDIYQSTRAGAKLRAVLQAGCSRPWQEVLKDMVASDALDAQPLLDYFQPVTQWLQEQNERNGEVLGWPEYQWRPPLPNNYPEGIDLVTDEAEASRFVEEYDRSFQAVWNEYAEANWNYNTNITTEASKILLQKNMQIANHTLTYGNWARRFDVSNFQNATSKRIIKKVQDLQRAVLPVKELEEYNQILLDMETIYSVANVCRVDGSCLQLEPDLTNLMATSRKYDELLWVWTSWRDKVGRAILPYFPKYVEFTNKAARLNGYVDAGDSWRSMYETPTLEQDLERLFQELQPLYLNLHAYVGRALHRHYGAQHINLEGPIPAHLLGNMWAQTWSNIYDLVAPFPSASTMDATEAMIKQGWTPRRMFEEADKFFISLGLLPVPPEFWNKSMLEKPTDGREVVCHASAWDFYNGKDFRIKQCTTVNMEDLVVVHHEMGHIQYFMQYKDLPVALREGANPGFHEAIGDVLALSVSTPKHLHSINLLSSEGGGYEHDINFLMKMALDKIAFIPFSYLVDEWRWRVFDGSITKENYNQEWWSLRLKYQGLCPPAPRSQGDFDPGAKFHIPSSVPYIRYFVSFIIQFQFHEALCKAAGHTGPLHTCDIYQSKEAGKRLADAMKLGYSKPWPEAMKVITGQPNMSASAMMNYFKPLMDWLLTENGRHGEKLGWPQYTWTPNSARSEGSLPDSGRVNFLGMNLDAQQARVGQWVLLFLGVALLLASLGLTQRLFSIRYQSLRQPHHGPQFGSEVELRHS

Neprilysin = molecular target: T2, Neprilysin (Rattus norvegicus, UniProt P07861); assay: Inhibition of Neutral endopeptidase
T2 sequence (P07861 whole entry): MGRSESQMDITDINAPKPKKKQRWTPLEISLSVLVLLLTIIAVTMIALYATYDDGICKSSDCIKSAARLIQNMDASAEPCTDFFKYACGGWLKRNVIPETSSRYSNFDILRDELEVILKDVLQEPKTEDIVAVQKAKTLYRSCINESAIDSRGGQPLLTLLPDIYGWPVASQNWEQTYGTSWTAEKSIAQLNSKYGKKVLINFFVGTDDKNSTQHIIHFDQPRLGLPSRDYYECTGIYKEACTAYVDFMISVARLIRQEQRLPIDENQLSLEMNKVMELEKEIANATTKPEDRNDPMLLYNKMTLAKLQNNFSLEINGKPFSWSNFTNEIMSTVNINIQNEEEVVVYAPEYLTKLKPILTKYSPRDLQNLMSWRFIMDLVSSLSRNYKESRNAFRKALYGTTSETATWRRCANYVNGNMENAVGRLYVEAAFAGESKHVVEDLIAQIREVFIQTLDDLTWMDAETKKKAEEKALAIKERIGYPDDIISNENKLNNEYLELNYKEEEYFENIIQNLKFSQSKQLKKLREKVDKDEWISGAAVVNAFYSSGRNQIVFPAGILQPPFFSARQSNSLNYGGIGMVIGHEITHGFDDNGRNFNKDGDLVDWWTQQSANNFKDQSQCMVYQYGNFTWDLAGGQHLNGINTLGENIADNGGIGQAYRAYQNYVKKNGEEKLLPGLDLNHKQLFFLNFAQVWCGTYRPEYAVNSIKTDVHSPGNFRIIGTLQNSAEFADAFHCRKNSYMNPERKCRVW

| SMILES | IC50 [1] [nM] | IC50 (Neprilysin) [nM] |
| --- | --- | --- |
| O=CN(O)C[C@@H](Cc1ccccc1)C(=O)N[C@H]1Cc2ccccc2[C@H]2CCC[C@@H](C(=O)O)N2C1=O | 3.4 | 1.8 |
| CC(C)C[C@H](NC(=O)[C@H](Cc1ccccc1)N(O)C=O)C(=O)N[C@@H](Cc1ccccc1)C(=O)O | 228000 | 93000 |
| CC(C)C[C@H](NC(=O)C(Cc1ccccc1)CN(O)C=O)C(=O)N[C@@H](Cc1ccccc1)C(=O)O (stereo not given in full) | 106 | 1270 |
| CC(C)C[C@H](NC(=O)C(Cc1ccccc1)CN(O)C(N)=O)C(=O)N[C@@H](Cc1ccccc1)C(=O)O (stereo not given in full) | 529000 | 705000 |
| CC(=O)N(O)CC(Cc1ccccc1)C(=O)N[C@@H](CC(C)C)C(=O)N[C@@H](Cc1ccccc1)C(=O)O (stereo not given in full) | 461000 | 214000 |
| CC1(C)CCC[C@H](NC(=O)[C@H](Cc2ccccc2)CN(O)C=O)C(=O)N1CC(=O)O | 5.4 | 18 |
| CC(C)[C@H](NCP(=O)(O)O)C(=O)N[C@@H](Cc1ccc(-c2ccccc2)cc1)C(=O)O | 25 | 3 |
| O=CN(O)C[C@@H](Cc1ccccc1)C(=O)N[C@H]1CCc2ccccc2N(CC(=O)O)C1=O | 5.3 | 1.3 |
| O=C(N[C@H]1CCS[C@H]2CCC[C@@H](C(=O)O)N2C1=O)[C@@H](S)Cc1ccccc1 [OMAPATRILAT] | 6 | 9 |
| CS(=O)(=O)N[C@@H](CCCCN)C(=O)NC[C@H](CC1(C(=O)N[C@@H](Cc2ccc(O)cc2)C(=O)O)CCCC1)C(=O)O [SAMPATRILAT] | 7 | 20 |
